# Measured values published in ChEMBL document CHEMBL5055643, “Sophoraflavanone G Resensitizes ABCG2-Overexpressing Multidrug-Resistant Non-Small-Cell Lung Cancer Cells to Chemotherapeutic Drugs” (J Nat Prod, 2021).
# Calls of active or inactive are those of the source. No cut-off for these calls is given here.
# Tests used:
# [1] = tested on: A549; assay: Chemo-sensitizing activity against human A549 cells assessed as reversal fold at 1 uM measured after 72 hrs in presence of SN-38 by CCK8 assay relative to control; assay type: functional
# [2] = tested on: NCI/ADR-RES; assay: Chemo-sensitizing activity against ABCB1-overexpressing human NCI/ADR-RES cells assessed as reversal fold at 5 uM measured after 72 hrs in presence of vincristine by CCK8 assay relative to control; assay type: functional
# [3] = tested on: HEK293; assay: Chemo-sensitizing activity against ABCB1-overexpressing human HEK293/MDR19 cells assessed as reversal fold at 5 uM measured after 72 hrs in presence of vincristine by CCK8 assay relative to control; assay type: functional
# [4] = tested on: HEK293; assay: Cytotoxicity against human HEK293 cells assessed as reduction in cell viability measured after 72 hrs by CCK8 assay; assay type: cell-based; conditions: HEK293, 72 h
# [5] = molecular target: T1, Broad substrate specificity ATP-binding cassette transporter ABCG2 (Homo sapiens, UniProt Q9UNQ0); assay: Inhibition of ABCG2 in mitoxantrone-selected ABCG2-overexpressing human NCI-H460/MX20 cells assessed as increase in intracellular mitoxantrone accumulation incubated for 1 hr in presence of mitoxantrone by flow cytometry; assay type: cell-based
# T1 sequence (Q9UNQ0 whole entry): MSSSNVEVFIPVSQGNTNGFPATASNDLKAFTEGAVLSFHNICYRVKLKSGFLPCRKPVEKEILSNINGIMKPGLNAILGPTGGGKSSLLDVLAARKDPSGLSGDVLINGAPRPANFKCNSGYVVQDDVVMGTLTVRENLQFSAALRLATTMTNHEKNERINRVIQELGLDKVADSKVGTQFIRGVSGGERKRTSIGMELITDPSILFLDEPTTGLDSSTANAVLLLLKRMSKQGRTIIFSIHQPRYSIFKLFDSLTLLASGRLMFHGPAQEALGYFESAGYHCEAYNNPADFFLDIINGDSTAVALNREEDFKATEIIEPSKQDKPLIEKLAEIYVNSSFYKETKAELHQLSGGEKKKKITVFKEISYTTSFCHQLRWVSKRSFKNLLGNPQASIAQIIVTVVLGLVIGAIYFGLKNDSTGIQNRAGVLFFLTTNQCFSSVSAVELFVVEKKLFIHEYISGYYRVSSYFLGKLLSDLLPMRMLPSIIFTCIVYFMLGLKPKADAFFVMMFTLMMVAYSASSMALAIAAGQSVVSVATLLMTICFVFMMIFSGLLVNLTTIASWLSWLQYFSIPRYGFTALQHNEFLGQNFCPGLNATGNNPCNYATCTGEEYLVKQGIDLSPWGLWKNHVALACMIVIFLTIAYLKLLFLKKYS
# [6] = tested on: A549; assay: Chemo-sensitizing activity against human A549 cells assessed as reversal fold at 1 uM measured after 72 hrs in presence of mitoxantrone by CCK8 assay relative to control; assay type: functional
# [7] = tested on: A549; assay: Cytotoxicity against becatecarin-selected ABCG2-overexpressing human A549/Bec150 cells assessed as reduction in cell viability measured after 72 hrs by CCK8 assay; assay type: ADME, cell-based; conditions: A549, 72 h
# [8] = tested on: A549; assay: Effect on ABCG2 protein expression in becatecarin-selected ABCG2-overexpressing human A549/Bec150 cells at 1 to 5 uM incubated for 72 hrs by immunoblot analysis; assay type: functional, cell-based; conditions: dose 1-5 µM
# [9] = tested on: OVCAR-8; assay: Chemo-sensitizing activity against human OVCAR-8 cells assessed as reversal fold at 5 uM measured after 72 hrs in presence of paclitaxel by CCK8 assay relative to control; assay type: functional
# [10] = tested on: HEK293; assay: Chemo-sensitizing activity against ABCG2-overexpressing human HEK293/482R cells assessed as reversal fold at 2 uM measured after 72 hrs in presence of SN-38 by CCK8 assay relative to control; assay type: functional
# [11] = tested on: HEK293; assay: Chemo-sensitizing activity against ABCB1-overexpressing human HEK293/MDR19 cells assessed as reversal fold at 5 uM measured after 72 hrs in presence of paclitaxel by CCK8 assay relative to control; assay type: functional
# [12] = tested on: HEK293; assay: Chemo-sensitizing activity against ABCB1-overexpressing human HEK293/MDR19 cells assessed as reversal fold at 1 uM measured after 72 hrs in presence of colchicine by CCK8 assay relative to control; assay type: functional
# [13] = tested on: HEK293; assay: Chemo-sensitizing activity against human HEK293 cells assessed as reversal fold at 2 uM measured after 72 hrs in presence of SN-38 by CCK8 assay relative to control; assay type: functional
# [14] = tested on: A549; assay: Chemo-sensitizing activity against becatecarin-selected ABCG2-overexpressing human A549/Bec150 cells assessed as reversal fold at 2 uM measured after 72 hrs in presence of topotecan by CCK8 assay relative to control; assay type: functional
# [15] = tested on: KB 3-1; assay: Chemo-sensitizing activity against human KB 3-1 cells assessed as reversal fold at 2 uM measured after 72 hrs in presence of vincristine by CCK8 assay relative to control; assay type: functional
# [16] = tested on: KB-V1; assay: Chemo-sensitizing activity against ABCB1-oveexpressing human KB-V1 cells assessed as reversal fold at 5 uM measured after 72 hrs in presence of colchicine by CCK8 assay relative to control; assay type: functional
# [17] = tested on: NCI-H460; assay: Chemo-sensitizing activity against human NCI-H460 cells assessed as reversal fold at 1 uM measured after 72 hrs in presence of mitoxantrone by CCK8 assay relative to control; assay type: functional
# [18] = tested on: HEK293; assay: Chemo-sensitizing activity against human HEK293 cells assessed as reversal fold at 5 uM measured after 72 hrs in presence of mitoxatrone by CCK8 assay relative to control; assay type: functional
# [19] = tested on: NCI-H460; assay: Chemo-sensitizing activity against mitoxantrone-selected ABCG2-overexpressing human NCI-H460/MX20 cells assessed as reversal fold at 2 uM measured after 72 hrs in presence of mitoxantrone by CCK8 assay relative to control; assay type: functional
structure (smiles),measurement,setting,value
C=C(C)[C@H](CC=C(C)C)Cc1c(O)cc(O)c2c1O[C@H](c1ccc(O)cc1O)CC2=O [SOPHORAFLAVANONE G],fold change (FC),[1],1
same,fold change (FC),[2],1.1
same,fold change (FC),[3],2.2
same,IC50,[4],35.1 µM
same,IC50,[5],2.12 µM
same,inhibition (INH),"[5]; human, nci-h460, 1 h, time 1 hrs",Dose-dependent effect
same,fold change (FC),[6],1.2
same,IC50,[7],21.3 µM
same,Activity,[8],inactive
same,fold change (FC),[9],1.1
same,fold change (FC),[10],2.4
same,fold change (FC),[11],1.3
same,fold change (FC),[12],0.8
same,fold change (FC),[13],0.9
same,fold change (FC),[14],1.8
same,fold change (FC),[15],1.2
same,fold change (FC),[16],0.8
same,fold change (FC),[17],2.3
same,fold change (FC),[18],1.1
same,fold change (FC),[19],2.7
